Data as given in PubChem BioAssay AID1918952 (Molecular Pharmacology Branch, DTP, NCI, 2023).

Tested on: LG0703-F948-PDC complex spheroid viability
Experiment: Anticancer human tumor LG0703-F948-PDC patient-derived lung adenocarcinoma cell line growth inhibition
Conditions: for IC50: curve of first compound; for viability, T/C: stronger effect = lower value
How it was run: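 Drug combinations with the LSD1 inhibitor iadademstat tested on tumor cells co-cultured as spheroids with endothelial cells and mesenchymal stem cells. Concentrations descended in half-log increments from clinical Cmax or 10 microM.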

[1] = second compound 0.1 µM, first compound 0.000316 µM
[2] = second compound 0.1 µM, first compound 0.001 µM
[3] = second compound 0.1 µM, first compound 0.00316 µM
[4] = second compound 0.1 µM, first compound 0.01 µM
[5] = second compound 0.1 µM, first compound 0.0316 µM
[6] = second compound 0.1 µM, first compound 0.1 µM
[7] = second compound 0.316 µM, first compound 0.000316 µM
[8] = second compound 0.316 µM, first compound 0.001 µM
[9] = second compound 0.316 µM, first compound 0.00316 µM
[10] = second compound 0.316 µM, first compound 0.01 µM
[11] = second compound 0.316 µM, first compound 0.0316 µM
[12] = second compound 0.316 µM, first compound 0.1 µM
[13] = second compound 1 µM, first compound 0.000316 µM
[14] = second compound 1 µM, first compound 0.001 µM
[15] = second compound 1 µM, first compound 0.00316 µM
[16] = second compound 1 µM, first compound 0.01 µM
[17] = second compound 1 µM, first compound 0.0316 µM
[18] = second compound 1 µM, first compound 0.1 µM
[19] = second compound 3.16 µM, first compound 0.000316 µM
[20] = second compound 3.16 µM, first compound 0.001 µM
[21] = second compound 3.16 µM, first compound 0.00316 µM
[22] = second compound 3.16 µM, first compound 0.01 µM
[23] = second compound 3.16 µM, first compound 0.0316 µM
[24] = second compound 3.16 µM, first compound 0.1 µM
[25] = second compound 10 µM, first compound 0.000316 µM
[26] = second compound 10 µM, first compound 0.001 µM
[27] = second compound 10 µM, first compound 0.00316 µM
[28] = second compound 10 µM, first compound 0.01 µM
[29] = second compound 10 µM, first compound 0.0316 µM
[30] = second compound 10 µM, first compound 0.1 µM
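Note: spheroids exposed to agents for seven days before readout.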
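Throughout, for viability, T/C: 100% = DMSO vehicle control wells as normalization base.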

Q: Which IC50 (second compound 0.1 µM) does the source give for `CC(C)CC(NC(=O)C(Cc1ccccc1)NC(=O)c1cnccn1)B(O)O` (stereo not given) + NC1CCC(NC2CC2c2ccccc2)CC1 here?
A: < 0.316 nM

Q: What about the IC50 (second compound 0.316 µM) of the same molecule?
A: < 0.316 nM

Q: What about the IC50 (second compound 1 µM) of the same molecule?
A: < 0.316 nM

Q: What about the IC50 (second compound 3.16 µM) of the same molecule?
A: < 0.316 nM

Q: And the IC50 (second compound 10 µM)?
A: < 0.316 nM

Q: What about the viability, T/C [1] of the same molecule?
A: 8.14%

Q: What about the viability, T/C [2] of the same molecule?
A: 0.63%

Q: What about the viability, T/C [3] of the same molecule?
A: 0.43%

Q: And the viability, T/C [4]?
A: 0.05%

Q: And the viability, T/C [5]?
A: 0.04%

Q: What about the viability, T/C [6] of the same molecule?
A: 0.13%

Q: What about the viability, T/C [7] of the same molecule?
A: 8.59%

Q: What about the viability, T/C [8] of the same molecule?
A: 1.33%

Q: What about the viability, T/C [9] of the same molecule?
A: 0.03%

Q: What about the viability, T/C [10] of the same molecule?
A: 0.82%

Q: What about the viability, T/C [11] of the same molecule?
A: 0.07%

Q: What about the viability, T/C [12] of the same molecule?
A: 0.11%

Q: What about the viability, T/C [13] of the same molecule?
A: 7.45%

Q: What about the viability, T/C [14] of the same molecule?
A: 0.3%

Q: And the viability, T/C [15]?
A: 0.12%

Q: And the viability, T/C [16]?
A: 0.06%

Q: What about the viability, T/C [17] of the same molecule?
A: 0.02%

Q: And the viability, T/C [18]?
A: 0.1%

Q: And the viability, T/C [19]?
A: 5.46%

Q: What about the viability, T/C [20] of the same molecule?
A: 0.14%

Q: What about the viability, T/C [21] of the same molecule?
A: 0.04%

Q: What about the viability, T/C [22] of the same molecule?
A: 0.1%

Q: What about the viability, T/C [23] of the same molecule?
A: 0.03%

Q: And the viability, T/C [24]?
A: 0.12%

Q: What about the viability, T/C [25] of the same molecule?
A: 1.9%

Q: What about the viability, T/C [26] of the same molecule?
A: 0.49%

Q: What about the viability, T/C [27] of the same molecule?
A: 0.29%

Q: And the viability, T/C [28]?
A: 0.18%

Q: What about the viability, T/C [29] of the same molecule?
A: 0.13%

Q: What about the viability, T/C [30] of the same molecule?
A: 0.25%

Q: Which IC50 (second compound 0.1 µM) does the source give for `CC(C)CC(NC(=O)CNC(=O)c1cc(Cl)ccc1Cl)B1OC(=O)CC(CC(=O)O)(C(=O)O)O1` (stereo not given) + NC1CCC(NC2CC2c2ccccc2)CC1 here?
A: 4.54 nM

Q: And the IC50 (second compound 0.316 µM)?
A: 4.94 nM

Q: And the IC50 (second compound 1 µM)?
A: 4.29 nM

Q: What about the IC50 (second compound 3.16 µM) of the same molecule?
A: 3.05 nM

Q: And the IC50 (second compound 10 µM)?
A: 1.98 nM

Q: And the viability, T/C [1]?
A: 118%

Q: And the viability, T/C [2]?
A: 95.6%

Q: What about the viability, T/C [3] of the same molecule?
A: 66.7%

Q: What about the viability, T/C [4] of the same molecule?
A: 19.8%

Q: And the viability, T/C [5]?
A: 2.45%

Q: What about the viability, T/C [6] of the same molecule?
A: 0.73%

Q: What about the viability, T/C [7] of the same molecule?
A: 104%

Q: And the viability, T/C [8]?
A: 102%

Q: And the viability, T/C [9]?
A: 69.4%

Q: What about the viability, T/C [10] of the same molecule?
A: 19%

Q: What about the viability, T/C [11] of the same molecule?
A: 2.48%

Q: And the viability, T/C [12]?
A: 0.54%

Q: And the viability, T/C [13]?
A: 118%

Q: What about the viability, T/C [14] of the same molecule?
A: 115%

Q: What about the viability, T/C [15] of the same molecule?
A: 60.8%

Q: And the viability, T/C [16]?
A: 17%

Q: And the viability, T/C [17]?
A: 2.68%

Q: What about the viability, T/C [18] of the same molecule?
A: 1.21%

Q: And the viability, T/C [19]?
A: 112%

Q: What about the viability, T/C [20] of the same molecule?
A: 127%

Q: What about the viability, T/C [21] of the same molecule?
A: 47.6%

Q: And the viability, T/C [22]?
A: 13.8%

Q: What about the viability, T/C [23] of the same molecule?
A: 2.43%

Q: What about the viability, T/C [24] of the same molecule?
A: 0.36%

Q: And the viability, T/C [25]?
A: 109%

Q: And the viability, T/C [26]?
A: 97.7%

Q: And the viability, T/C [27]?
A: 17.4%

Q: And the viability, T/C [28]?
A: 6.56%

Q: What about the viability, T/C [29] of the same molecule?
A: 0.78%

Q: What about the viability, T/C [30] of the same molecule?
A: 0.48%

Q: For `COc1cc(Nc2ncc3c(n2)-c2ccc(Cl)cc2C(c2c(F)cccc2OC)=NC3)ccc1C(=O)O` + NC1CCC(NC2CC2c2ccccc2)CC1, which IC50 (second compound 0.1 µM) is on record?
A: 218 nM

Q: And the IC50 (second compound 0.316 µM)?
A: 172 nM

Q: What about the IC50 (second compound 1 µM) of the same molecule?
A: 201 nM

Q: What about the IC50 (second compound 3.16 µM) of the same molecule?
A: 229 nM

Q: What about the IC50 (second compound 10 µM) of the same molecule?
A: 229 nM

Q: What about the viability, T/C [3] of the same molecule?
A: 87.8%

Q: And the viability, T/C [4]?
A: 80.6%

Q: And the viability, T/C [5]?
A: 81.6%

Q: And the viability, T/C [6]?
A: 73.5%

Q: And the viability, T/C (second compound 0.1 µM, first compound 0.316 µM)?
A: 38.9%

Q: And the viability, T/C (second compound 0.1 µM, first compound 1 µM)?
A: 6.3%

Q: What about the viability, T/C [9] of the same molecule?
A: 96.4%

Q: And the viability, T/C [10]?
A: 86.7%

Q: And the viability, T/C [11]?
A: 79.8%

Q: And the viability, T/C [12]?
A: 61.6%

Q: And the viability, T/C (second compound 0.316 µM, first compound 0.316 µM)?
A: 36.6%

Q: What about the viability, T/C (second compound 0.316 µM, first compound 1 µM) of the same molecule?
A: 5.23%

Q: And the viability, T/C [15]?
A: 104%

Q: And the viability, T/C [16]?
A: 87.6%

Q: And the viability, T/C [17]?
A: 91.4%

Q: And the viability, T/C [18]?
A: 71%

Q: What about the viability, T/C (second compound 1 µM, first compound 0.316 µM) of the same molecule?
A: 36.2%

Q: And the viability, T/C (second compound 1 µM, first compound 1 µM)?
A: 5.15%

Q: And the viability, T/C [21]?
A: 110%

Q: And the viability, T/C [22]?
A: 94.1%

Q: And the viability, T/C [23]?
A: 94.4%

Q: What about the viability, T/C [24] of the same molecule?
A: 83.7%

Q: What about the viability, T/C (second compound 3.16 µM, first compound 0.316 µM) of the same molecule?
A: 36.9%

Q: What about the viability, T/C (second compound 3.16 µM, first compound 1 µM) of the same molecule?
A: 4.29%

Q: What about the viability, T/C [27] of the same molecule?
A: 108%

Q: And the viability, T/C [28]?
A: 85.3%

Q: What about the viability, T/C [29] of the same molecule?
A: 89.9%

Q: And the viability, T/C [30]?
A: 83.7%

Q: What about the viability, T/C (second compound 10 µM, first compound 0.316 µM) of the same molecule?
A: 37.1%

Q: What about the viability, T/C (second compound 10 µM, first compound 1 µM) of the same molecule?
A: 2.91%
